Where “and” joins values, the source holds several entries; their conditions need not be identical. Equal entries are not always repeated. Entries after “also recorded” stand apart in the source; their conditions may differ.
What was measured:
full-length AR [1] = target: T1, full-length AR (Homo sapiens, UniProt P10275, T878A); test: Probasin (PB)-luciferase AR-driven reporter assay in LNCaP cells; type: cell-based; details: 24 h, R1881 1 nM
T1 construct: Transcriptional activity of full-length AR was assessed in LNCaP cells; endogenous in cells; host or cells: LNCaP
T1 sequence (P10275 1-920 T878A): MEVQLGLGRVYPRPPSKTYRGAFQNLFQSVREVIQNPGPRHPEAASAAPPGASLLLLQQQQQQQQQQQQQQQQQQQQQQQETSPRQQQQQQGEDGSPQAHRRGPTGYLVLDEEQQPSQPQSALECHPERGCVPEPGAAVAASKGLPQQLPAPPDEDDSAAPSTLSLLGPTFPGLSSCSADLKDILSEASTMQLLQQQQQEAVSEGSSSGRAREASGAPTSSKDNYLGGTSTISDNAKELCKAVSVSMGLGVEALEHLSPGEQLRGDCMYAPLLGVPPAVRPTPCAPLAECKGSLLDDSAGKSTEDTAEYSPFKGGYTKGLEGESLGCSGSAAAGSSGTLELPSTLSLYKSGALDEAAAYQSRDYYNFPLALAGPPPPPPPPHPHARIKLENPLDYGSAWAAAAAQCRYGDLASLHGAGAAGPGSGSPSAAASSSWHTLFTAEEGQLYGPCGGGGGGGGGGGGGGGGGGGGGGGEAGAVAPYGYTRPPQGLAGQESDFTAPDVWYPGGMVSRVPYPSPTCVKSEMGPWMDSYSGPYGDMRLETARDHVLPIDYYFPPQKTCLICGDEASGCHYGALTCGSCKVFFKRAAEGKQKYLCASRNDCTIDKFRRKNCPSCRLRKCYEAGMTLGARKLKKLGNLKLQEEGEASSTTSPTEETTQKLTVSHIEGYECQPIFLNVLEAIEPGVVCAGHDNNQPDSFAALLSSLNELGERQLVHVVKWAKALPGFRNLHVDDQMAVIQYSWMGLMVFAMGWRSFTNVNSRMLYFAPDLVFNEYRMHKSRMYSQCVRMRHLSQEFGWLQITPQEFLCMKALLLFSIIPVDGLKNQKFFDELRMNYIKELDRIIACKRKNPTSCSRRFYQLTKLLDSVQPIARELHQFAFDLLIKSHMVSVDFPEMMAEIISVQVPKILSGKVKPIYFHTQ

full-length AR [2] = target: T1, full-length AR; test: PSA(6.1 kb)-luciferase AR-driven reporter assay in LNCaP cells; type: cell-based; details: LNCaP, R1881 1 nM, 24 h; read-out: IC50, androgen-induced PSA(6.1 kb)-luciferase activity
[3] = target: T2, AR interaction with STAT3 (Homo sapiens, UniProt P10275, T878A); test: Co-immunoprecipitation of AR with STAT3 from LNCaP cells; type: cell-based; details: juglone 30 μM, IL-6 50 ng/mL, 6 h
T2 construct: Endogenous STAT3 complexes were co-immunoprecipitated from LNCaP cells treated with juglone and IL-6; endogenous in cells; host or cells: LNCaP
Procedure: Fig. 3 Pin1 interacts with the AR NTD and regulates transactivation. a, b Transactivation assays performed in LNCaP cells expressing a vector encoding the human AR NTD fused to a Gal4 DNA-binding domain (Gal4-ARN). […] Input samples show Pin1 expression from lysates before the pull-down. i Co-immunoprecipitation assay showing AR protein co-immunoprecipitated with STAT3 from LNCaP cells incubated with EPI-002 (EPI, 35 μM), juglone (JUG, 30 μM), or vehicle (VEH, DMSO), and IL-6 (50 ng/mL) for 6 h. j, k Levels of phosphorylated MAPK (isoforms p44 and p42) and phosphorylated STAT3 (Tyr705 and Ser727) from LNCaP cells pre-treated with juglone (20 µM) and then stimulated with IL-6 (50 ng/mL) for 15 min. Error bars show the mean ± s.e.m. *P < 0.05, **P < 0.01, ***P < 0.001; ns not significant.

[4] = test system: Pin1 and cell cycle proteins in LN95 cells; test: Western blot of Pin1 and cell cycle proteins in LN95 cells; details: for CyclinA2 protein level (Fig. 6a) / CyclinB1 protein level (Fig. 6a) / CyclinD1 protein level (Fig. 6a) / Pin1 protein level (Fig. 6a) / p21 protein level (Fig. 6a) / p27 protein level (Fig. 6a): relative to 0 μM = 1, replicate experiments by date
Procedure: Data shown are the means ± s.e.m. from 3–4 independent experiments. Statistical significance was determined by ANOVA using the Dunnett’s multiple comparisons test. *P < 0.05, **P < 0.01, ***P < 0.001.
For western blot analyses, membranes were blocked with 5% non-fat milk in phosphate-buffered saline containing 0.1% Tween-20 (PBS-T) and then incubated overnight at 4 °C with primary antibody (1:200–5000) in PBS-T containing 5% non-fat milk or 2% BSA. After incubation with the primary antibody, the membrane was washed three times with TBS-T, incubated with a horseradish peroxidase-conjugated antibody secondary antibody (1:5000–10,000) for 1–2 h at room temperature, and washed three times with PBS-T and two more times with PBS before chemiluminescence was detected with ECL Prime Reagent (GE Healthcare Life Science, Mississauga, ON). Western blot images were captured using the ChemiDoc MP Imaging System (Bio-Rad Laboratories, Hercules, CA) and quantified using ImageJ software.

O=C1C=CC(=O)c2c(O)cccc21 [juglone]
remaining activity at 10 µM (full-length AR [1]; inhibitor 10 μM, read-out: PB-luciferase activity normalized to the induction by R1881 (=100) (Fig. 2b)): 22.5%
IC50 (full-length AR [1]; read-out: IC50, androgen-induced PB-luciferase activity): 6.45 µM
IC50 (full-length AR [2]): 10.9 µM
reduction of the amount of AR interacting with STAT3 [3]: ~ 50%

CC1=C(/C=C/C(C)=C/C=C/C(C)=C/C(=O)O)C(C)(C)CCC1 [ATRA, all-trans retinoic acid]
CyclinA2 protein level (Fig. 6a) ([4]; 1 μM): 1 and 0.69 and 0.64
CyclinB1 protein level (Fig. 6a) ([4]; 1 μM): 1.17 and 0.87 and 1.22
CyclinD1 protein level (Fig. 6a) ([4]; 1 μM): 0.71 and 0.24 and 0.7 and 0.33
Pin1 protein level (Fig. 6a) ([4]; 1 μM): 0.8 and 0.7 and 0.86 and 0.56
p21 protein level (Fig. 6a) ([4]; 1 μM): 1.19 and 0.73 and 1.3
p27 protein level (Fig. 6a) ([4]; 1 μM): 0.93 and 0.87 and 1.2
CyclinA2 protein level (Fig. 6a) ([4]; 5 μM): 0.66 and 0.01 and 1.22
CyclinB1 protein level (Fig. 6a) ([4]; 5 μM): 0.9 and 0.62 and 1.39
CyclinD1 protein level (Fig. 6a) ([4]; 5 μM): 0.34 and 0.13 and 0.42 and 0.23
Pin1 protein level (Fig. 6a) ([4]; 5 μM): 0.63 and 0.26 and 0.56 and 0.35
p21 protein level (Fig. 6a) ([4]; 5 μM): 0.81 and 0.2 and 1.37
p27 protein level (Fig. 6a) ([4]; 5 μM): 1.19 and 1.12 and 1.3
CyclinA2 protein level (Fig. 6a) ([4]; 10 μM): 0.13 and 0 and 0.23
CyclinB1 protein level (Fig. 6a) ([4]; 10 μM): 0.63 and 0.58 and 0.55
CyclinD1 protein level (Fig. 6a) ([4]; 10 μM): 0.01 and 0.35 and 0.23 and 0.05
Pin1 protein level (Fig. 6a) ([4]; 10 μM): 0.56 and 0.13 and 0.39 and 0.14
p21 protein level (Fig. 6a) ([4]; 10 μM): 1.42 and 0.19 and 0.58
p27 protein level (Fig. 6a) ([4]; 10 μM): 1.39 and 2.2 and 1.28
effect on cellular Pin1 protein levels ([4]; LN95, 0–10 µM): dose-dependent decrease in Pin1 levels
effect on expression of cyclins D1, A2, B1 ([4]; LN95, ATRA 0–10 µM): significantly decreased the expression of cyclin D1 and cyclin A2; also recorded: not cyclin B1
effect on levels of CDK inhibitors p27Kip1 and p21Cip1 ([4]; LN95, ATRA 0–10 µM): selectively increased the levels of cyclin-dependent kinase (CDK) inhibitor p27^Kip1 but not p21^Cip1
